The compounds below were run against T1, human TRPV1 (Homo sapiens, UniProt Q8NER1) (assay: Capsaicin-induced Ca influx in transformed CHO cells, FDSS-6000 (b-1), A2 value). Conditions: concentration shifting the capsaicin concentration-reaction curve two times rightward; CHO cells expressing TRPV1.
T1 construct: expressed in transfected cells; host or cells: CHO-K1 cells, pCAGGS vector, clones selected by limiting dilution
Format: cell-based
From the text: (1) Measurement of Capsaicin-Induced Ca Influx in a Transformed CHO Cell Line Expressing Human TRPV1
(a) Establishment of a Transformed CHO Cell Line Expressing Human and Rat TRPV1
Human and rat vanilloid receptor 1 (hTRPV1 and rTRPV1) cDNA was cloned from human brain and rat dorsal root ganglion, respectively. The cloned TRPV1 cDNA was incorporated in a pCAGGS vector. The vector was introduced to a CHO-K1 cell line, thus performing transformation. Clones obtained by limiting dilution were stimulated with capsaicin. Clones with a high responsiveness were selected using an increase in the Ca concentration as an indicator. The selected clones were used for the following experiment.
(b-1) Measurement of Ca Influx using FDSS-6000
The transformed CHO cells expressing human or rat TRPV1 were seeded in a 96-well plate (with black walls and transparent bottoms, manufactured by Greiner) at a density of 40,000 cells per well. The cells were cultured at 37° C. in 5% CO2 atmosphere for one night. A loading solution of FLIPR Calcium 3 assay kit (manufactured by Molecular Devices Corporation) containing 2.5 mmol/L of probenecid was then added to each of the wells in the same amount as the culture medium, and the cells were cultured at 37° C. for 60 minutes. For three minutes after the cells were stimulated with capsaicin (1 nmol/L to 1 μmol/L), the change of the intracellular Ca concentration was measured using FDSS-6000 (λex: 480 nm, λem: […], manufactured by Hamamatsu Photonics K.K.). The integrated values of the increase rate of the intracellular Ca concentration were calculated for a group treated with the compounds of the present invention and a group treated with a vehicle, thus allowing capsaicin concentration-reaction curves to be obtained. A concentration (A2 value) of each of the compounds of the present invention, at which the capsaicin concentration-reaction curve obtained when the cells were treated with the vehicle was shifted two times rightward, was calculated. The inhibitory effects of the test compounds were compared using this value as an indicator.

T1 sequence (Q8NER1 whole entry): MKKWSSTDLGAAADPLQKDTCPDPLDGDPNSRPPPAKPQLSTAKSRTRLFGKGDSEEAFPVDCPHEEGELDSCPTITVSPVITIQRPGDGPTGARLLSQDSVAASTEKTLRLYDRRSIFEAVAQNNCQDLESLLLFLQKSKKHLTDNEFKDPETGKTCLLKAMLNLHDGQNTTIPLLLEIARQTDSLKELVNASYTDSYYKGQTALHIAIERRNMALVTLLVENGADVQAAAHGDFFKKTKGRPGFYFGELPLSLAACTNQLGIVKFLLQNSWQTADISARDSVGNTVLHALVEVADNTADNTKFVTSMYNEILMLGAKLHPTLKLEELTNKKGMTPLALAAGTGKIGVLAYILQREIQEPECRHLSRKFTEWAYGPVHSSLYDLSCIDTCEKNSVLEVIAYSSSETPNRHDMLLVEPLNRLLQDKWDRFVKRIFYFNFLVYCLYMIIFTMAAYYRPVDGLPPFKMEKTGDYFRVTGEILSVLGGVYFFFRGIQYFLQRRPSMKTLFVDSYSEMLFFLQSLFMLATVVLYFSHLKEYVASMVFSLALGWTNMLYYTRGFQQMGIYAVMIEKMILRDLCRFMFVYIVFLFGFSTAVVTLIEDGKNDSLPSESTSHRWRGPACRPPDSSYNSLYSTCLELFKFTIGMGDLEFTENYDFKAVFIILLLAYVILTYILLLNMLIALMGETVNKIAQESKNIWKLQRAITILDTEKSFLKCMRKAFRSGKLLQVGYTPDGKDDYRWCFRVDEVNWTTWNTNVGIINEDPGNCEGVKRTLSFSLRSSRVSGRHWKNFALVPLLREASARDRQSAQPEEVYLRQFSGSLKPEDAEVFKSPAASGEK

Question: O=C(/C=C1\CCCOc2cc(C(F)(F)F)ccc21)Nc1ccc2c(c1)NS(=O)(=O)NC2 [EXAMPLE 17, (E)-2-(8-trifluoromethyl-3,4-dihydrobenzo[b]oxepin-5(2H)-ylidene)-N-(3,4-dihydro-2,2-dioxo-1-H-2,1,3-benzothiadiazin-7-yl)acetamide] was tested. Which A2 value did it give?
Answer: A (A2 value of less than 100 nM)

Question: COCCN(CCOC)C1Cc2ccc(NC(=O)/C=C3\CCCOc4cc(C(F)(F)F)ccc43)cc2NC1=O (centres unmarked) [EXAMPLE 44] was tested. Which A2 value did it give?
Answer: A (A2 value of less than 100 nM)

Question: With CN1c2ccc(NC(=O)/C=C3\CCCOc4cc(C(F)(F)F)ccc43)cc2NC(=O)C1(C)CO (centres unmarked) [EXAMPLE 41, (E)-2-(8-trifluoromethyl-3,4-dihydrobenzo[b]oxepin-5(2H)-ylidene)-N-(3-hydroxymethyl-3,4-dimethyl-3,4-dihydro-2(1H)-quinoxalinon-7-yl)acetamide] as the compound, how does the A2 value read?
Answer: A (A2 value of less than 100 nM)

Question: With O=C(/C=C1\CCCOc2cc(C(F)(F)F)ccc21)Nc1ccc2c(c1)NC(=O)N(Cc1ccccc1)C2 [EXAMPLE 38, (E)-2-(8-trifluoromethyl-3,4-dihydrobenzo[b]oxepin-5(2H)-ylidene)-N-(3-benzyl-3,4-dihydro-2(1H)-quinazolinon-7-yl)acetamide] as the compound, how does the A2 value read?
Answer: A (A2 value of less than 100 nM)

Question: How did the A2 value turn out when O=C(/C=C1\CCCOc2cc(C(F)(F)F)ccc21)Nc1ccc2c(c1)NC(=O)C(N1CC[C@@H](F)C1)C2 (stereo partly drawn) [EXAMPLE 47, (E)-2-(8-trifluoromethyl-3,4-dihydrobenzo[b]oxepin-5(2H)-ylidene)-N-(3-((3S)-fluoropyrrolidin-1-yl)-3,4-dihydro-2(1H)-quinolinon-7-yl)acetamide] was run?
Answer: A (A2 value of less than 100 nM)

Question: With O=C(/C=C1\CCCOc2cc(C(F)(F)F)ccc21)Nc1ccc2c(c1)NC(=O)C(CO)C2 (centres unmarked) [EXAMPLE 28, (E)-2-(8-trifluoromethyl-3,4-dihydrobenzo[b]oxepin-5(2H)-ylidene)-N-(3-hydroxymethyl-3,4-dihydro-2(1H)-quinolinon-7-yl)acetamide] as the compound, how does the A2 value read?
Answer: A (A2 value of less than 100 nM)

Question: O=C(/C=C1\CCCOc2cc(C(F)(F)F)ccc21)Nc1ccc2c(c1)NC(=O)C(N1CCSCC1)C2 (centres unmarked) [EXAMPLE 54, (E)-2-(B-trifluoromethyl-3,4-dihydrobenzo[b]oxepin-5(2H)-ylidene)-N-(3-(4-thiomorpholinyl)-3,4-dihydro-2(1H)-quinolinon-7-yl)acetamide] was tested. Which A2 value did it give?
Answer: A (A2 value of less than 100 nM)

Question: Which A2 value does the source give for CN1c2ccc(NC(=O)/C=C3\CCCOc4cc(C(F)(F)F)ccc43)cc2NC(=O)C1(C)C [EXAMPLE 11, (E)-2-(8-trifluoromethyl-3,4-dihydrobenzo[b]oxepin-5(2H)-ylidene)-N-(3,3-dimethyl-4-methyl-3,4-dihydro-2(1H)-quinoxalinon-7-yl)acetamide] here?
Answer: A (A2 value of less than 100 nM)

Question: O=C(/C=C1\CCCOc2cc(C(F)(F)F)ccc21)Nc1ccc2c(c1)NC(=O)OC2 [EXAMPLE 12, (E)-2-(8-trifluoromethyl-3,4-dihydrobenzo[b]oxepin-5(2H)-ylidene)-N-(1,4-dihydro-2H-3,1-benzoxadin-2-on-7-yl)acetamide] was tested. Which A2 value did it give?
Answer: A (A2 value of less than 100 nM)

Question: For COCCN1Cc2ccc(NC(=O)/C=C3\CCCOc4cc(C(F)(F)F)ccc43)cc2NC1=O [EXAMPLE 16, (E)-2-(8-trifluoromethyl-3,4-dihydrobenzo[b]oxepin-5(2H)-ylidene)-N-(3-(2-methoxyethyl)-3,4-dihydro-2(1H)-quinazolinon-7-yl)acetamide], which A2 value is on record?
Answer: A (A2 value of less than 100 nM)

Question: How did the A2 value turn out when O=C(/C=C1\CCCOc2cc(C(F)(F)F)ccc21)Nc1ccc2c(c1)NS(=O)(=O)CC2 [Example 59, (E)-2-(8-trifluoromethyl-3,4-dihydrobenzo[b]oxepin-5(2H)-ylidene)-N-(2,2-dioxo-3,4-dihydro-(1H)-2,1-benzothiazin-7-yl)acetamide] was run?
Answer: A (A2 value of less than 100 nM)

Question: For CN1CC(=O)Nc2cc(NC(=O)/C=C3\CCCOc4cc(C(F)(F)F)ccc43)ccc21 [EXAMPLE 8, (E)-2-(8-trifluoromethyl-3,4-dihydrobenzo[b]oxepin-5 (2H)-ylidene)-N-(4-methyl-3,4-dihydro-2(1H)-quinoxalinon-7-yl)acetamide], which A2 value is on record?
Answer: A (A2 value of less than 100 nM)

Question: CC1(C)C/C(=C\C(=O)Nc2ccc3c(c2)NC(=O)CC3)c2ccc(C(F)(F)F)cc2O1 [EXAMPLE 24, (E)-2-(7-trifluoromethyl-2,2-dimethylchroman-4-ylidene)-N-(3,4-dihydroquinolin-2(1H)-on-7-yl)acetamide] was tested. Which A2 value did it give?
Answer: A (A2 value of less than 100 nM)

Question: CC1(CO)Nc2ccc(NC(=O)/C=C3\CCCOc4cc(C(F)(F)F)ccc43)cc2NC1=O (centres unmarked) [EXAMPLE 40, (E)-2-(8-trifluoromethyl-3,4-dihydrobenzo[b]oxepin-5(2H)-ylidene)-N-(3-hydroxymethyl-3-methyl-3,4-dihydro-2(1H)-quinoxalinon-7-yl)acetamide] was tested. Which A2 value did it give?
Answer: A (A2 value of less than 100 nM)

Question: For O=C(/C=C1\CCCOc2cc(C(F)(F)F)ccc21)Nc1ccc2c(c1)NC(=O)C(CO)N2 (centres unmarked) [EXAMPLE 9, (E)-2-(8-trifluoromethyl-3,4-dihydrobenzo[b]oxepin-5(2H)-ylidene)-N-(3-hydroxymethyl-3,4-dihydro-2(1H)-quinoxalinon-7-yl)acetamide], which A2 value is on record?
Answer: A (A2 value of less than 100 nM)

Question: O=C(/C=C1\CCCOc2cc(C(F)(F)F)ccc21)Nc1ccc2c(c1)NC(=O)C(N1CCNCC1)C2 (centres unmarked) [EXAMPLE 52, (E)-2-(8-trifluoromethyl-3,4-dihydrobenzo[b]oxepin-5(2H)-ylidene)-N-(3-(1-piperazinyl)-3,4-dihydro-2(1H)-quinolinon-7-yl)acetamide] was tested. Which A2 value did it give?
Answer: B (A2 value of 100 nM or more)

Question: How did the A2 value turn out when CN1C(=O)CCc2ccc(NC(=O)/C=C3\CC(C)(C)Oc4cc(C(F)(F)F)ccc43)cc21 [EXAMPLE 25, (E)-2-(7-trifluoromethyl-2,2-dimethylchroman-4-ylidene)-N-(1-methyl-3,4-dihydro-2(1H)-quinolinon-7-yl)acetamide] was run?
Answer: A (A2 value of less than 100 nM)

Question: CC1(C)Oc2ccc(NC(=O)/C=C3\CCCOc4cc(C(F)(F)F)ccc43)cc2NC1=O [Example 1, (E)-2-(8-trifluoromethyl-3,4-dihydrobenzo[b]oxepin-5(2H)-ylidene)-N-(2,2-dimethyl-4H-benzo[1,4]oxazin-3-on-6-yl)acetamide] was tested. Which A2 value did it give?
Answer: A (A2 value of less than 100 nM)

Question: O=C(/C=C1\CCCOc2cc(C(F)(F)F)ccc21)Nc1ccc2c(c1)NC(=O)CN2 [Example 7, (E)-2-(8-trifluoromethyl-3,4-dihydrobenzo[b]oxepin-5(2H)-ylidene)-N-(3,4-dihydro-2(1H)-quinoxalinon-7-yl)acetamide] was tested. Which A2 value did it give?
Answer: A (A2 value of less than 100 nM)

Question: How did the A2 value turn out when O=C(/C=C1\CCCOc2cc(C(F)(F)F)ccc21)Nc1ccc2c(c1)NC(=O)C(N1CCCC1)C2 (centres unmarked) [EXAMPLE 46] was run?
Answer: A (A2 value of less than 100 nM)

Question: O=C(/C=C1\CCCOc2cc(C(F)(F)F)ccc21)Nc1ccc2cc(N3CCOCC3)c(=O)[nH]c2c1 [Example 58, (E)-2-(8-trifluoromethyl-3,4-dihydrobenzo[b]oxepin-5(2H)-ylidene)-N-(3-(4-morpholinyl)-2(1H)-quinolinon-7-yl)acetamide] was tested. Which A2 value did it give?
Answer: A (A2 value of less than 100 nM)

Question: How did the A2 value turn out when O=C(/C=C1\CCCOc2cc(C(F)(F)F)ccc21)Nc1cccc2c1CCC(=O)N2 [compound 18, (E)-2-(8-trifluoromethyl-3,4-dihydrobenzo[b]oxepin-5(2H)-ylidene)-N-(3,4-dihydro-2(1H)-quinolinon-5-yl)acetamide] was run?
Answer: A (A2 value of less than 100 nM)

Question: O=C(/C=C1\CCCOc2cc(C(F)(F)F)ccc21)Nc1ccc2c(c1)NC(=O)C(N1CCOCC1)C2 (centres unmarked) [EXAMPLE 34, (E)-2-(8-trifluoromethyl-3,4-dihydrobenzo[b]oxepin-5(2H)-ylidene)-N-(3-(4-morpholinyl)-3,4-dihydro-2(1H)-quinolinon-7-yl)acetamide] was tested. Which A2 value did it give?
Answer: A (A2 value of less than 100 nM)

Question: Which A2 value does the source give for O=C(/C=C1\CCCOc2cc(C(F)(F)F)ccc21)Nc1cccc2c1OCC(=O)N2 [EXAMPLE 20, (E)-2-(8-trifluoromethyl-3,4-dihydrobenzo[b]oxepin-5(2H)-ylidene)-N-(2H-1,4-benzoxazin-3(4H)-on-8-yl)acetamide] here?
Answer: A (A2 value of less than 100 nM)

Question: O=C(/C=C1\CCCOc2cc(C(F)(F)F)ccc21)Nc1ccc2c(c1)NC(=O)C(CCO)O2 (centres unmarked) [Example 3, (E)-2-(8-trifluoromethyl-3,4-dihydrobenzo[b]oxepin-5(2H)-ylidene)-N-(2-(2-hydroxyethyl)-4H-benzo[1,4]oxazin-3-on-6-yl)acetamide] was tested. Which A2 value did it give?
Answer: A (A2 value of less than 100 nM)

Question: How did the A2 value turn out when O=C(/C=C1\CCCOc2cc(C(F)(F)F)ccc21)Nc1ccc2c(c1)NC(=O)C(N1CC[C@@H](O)C1)C2 (stereo partly drawn) [EXAMPLE 48, (E)-2-(8-trifluoromethyl-3,4-dihydrobenzo[b]oxepin-5(2H)-ylidene)-N-(3-((3S)-hydroxypyrrolidin-1-yl)-3,4-dihydro-2(1H)-quinolinon-7-yl)acetamide] was run?
Answer: A (A2 value of less than 100 nM)
